These are literature values, as cited in patent publication US7723036B2, “Assessing response to anti-CD20 therapy by genotyping C1q components” (The University of Iowa Research Foundation, priority 2005, dated 2010).

Counter-ions that a name gives are not always drawn.

For data set [1] the following is noted: in vivo.
The conditions of data set [2]: oral radioactive lomustine 30 mg/m^2 to 100 mg/m^2; within 24 hours.
The conditions of data set [3]: in vivo. The source holds these as a separate data set.

For `COc1cccc2c1C(=O)c1c(O)c3c(c(O)c1C2=O)C[C@@](O)(C(=O)CO)C[C@@H]3O[C@H]1C[C@H](N)[C@H](O)[C@H](C)O1` [Doxorubicin, 5,12-Naphthacenedione, (8s-cis)-10-((3-amino-2,3,6-trideoxy-a-L-lyxo-hexopyranosyl)oxy)-7,8,9,10-tetrahydro-6,8,11-trihydroxy-8-(hydroxyacetyl)-1-methoxy-hydrochloride], the “oral absorption (in words)” value in data set [1] is on record as “absorbed poorly”.

As to `CC[C@]1(O)C[C@H]2CN(CCc3c([nH]c4ccccc34)[C@@](C(=O)OC)(c3cc4c(cc3OC)N(C=O)[C@H]3[C@@](O)(C(=O)OC)[C@H](OC(C)=O)[C@]5(CC)C=CCN6CC[C@]43[C@@H]65)C2)C1` [Vincristine], the “oral absorption (in words)” value in data set [1] is “Unpredictable absorption”.

As for `O=NN(CCCl)C(=O)NC1CCCCC1` [Lomustine, 1-(2-chloro-ethyl)-3-cyclohexyl-1 nitrosourea], the “radioactivity given excreted in the form of degradation products” value in data set [2] is reported as “about half”.

As to `COc1cccc2c1C(=O)c1c(O)c3c(c(O)c1C2=O)C[C@@](O)(C(C)=O)C[C@@H]3O[C@H]1C[C@H](N)[C@H](O)[C@H](C)O1` [Daunorubicin, 5,12-Naphthacenedione, (8S-cis)-8-acetyl-10-((3-amino-2,3,6-trideoxy-a-L-lyxo-hexanopyranosyl)oxy)-7,8,9,10-tetrahydro-6,8,11-trihydroxy-10-methoxy-, hydrochloride], the “oral absorption (in words)” value in data set [1] is given as “poor”.

Regarding `O=C(O)CCCc1ccc(N(CCCl)CCCl)cc1` [Chlorambucil, 4-(bis(2-chlorethyl)amino) benzenebutanoic acid], the “oral absorption (in words)” value in data set [1] was “rapidly and completely absorbed”.

Take `CC[C@]1(O)C[C@@H]2CN(CCc3c([nH]c4ccccc34)[C@@](C(=O)OC)(c3cc4c(cc3OC)N(C)[C@H]3[C@@](O)(C(=O)OC)[C@H](OC(C)=O)[C@]5(CC)C=CCN6CC[C@]43[C@@H]65)C2)C1` [Vinblastine]: the “oral absorption (in words)” value in data set [1] is “Unpredictable absorption”. Further, the “administered dose recovered in the feces after biliary excretion” value in data set [3] is “about 10%”.

In the case of `N.N.[Cl][Pt][Cl]` [Cisplatin], the “oral absorption (in words)” value in data set [1] is listed as “not absorbed orally”.
